Literature values in patent publication US9040672B2, “Devices and methods for reducing matrix effects” (Agilent Technologies, Inc., priority 2007, dated 2015).

Conditions: octanol-water partition coefficient

| SMILES | Log P |
| --- | --- |
| NC(=O)N1c2ccccc2C=Cc2ccccc21 [carbamazepine] | 2.69 |
| CC[C@@H]([C@H](C)O)n1ncn(-c2ccc(N3CCN(c4ccc(OC[C@@H]5CO[C@@](Cn6cncn6)(c6ccc(F)cc6F)C5)cc4)CC3)cc2)c1=O [posaconazole] | 5.66 |
